{"source": "PubChem BioAssay AID489027", "about": "(Sanford-Burnham Center for Chemical Genomics, 2010)", "note": "Active and inactive are the calls of the source. How the calls were made is not given here.", "data": [{"target": "UPR counterscreen luciferase reporter, luminescence", "experiment": "activators in UPR counterscreen luciferase reporter, dose response, counter-screen for adaptive UPR activator project, cell-based, luminescence (AID 489027)", "values": [{"smiles": "COc1ccc(C(=O)Oc2cc3c4c(c2)C(C)=CC(C)(C)N4C(=O)C3=O)cc1OC", "EC50": "inactive"}, {"smiles": "Cc1ccc(C(=O)N2N=C(c3ccc(Br)cc3)CC2c2ccccc2O)cc1", "note": "(configuration not stated)", "EC50": "14.3 µM"}, {"smiles": "COc1ccc(-c2csc3nc(-c4ccc(C)cc4)oc(=O)c23)cc1OC", "EC50": "> 80 µM (inactive)"}, {"smiles": "COc1ccc(N2CCN(Cc3nc(N)nc(Nc4ccc(C)c(Cl)c4)n3)CC2)cc1", "EC50": "> 80 µM (inactive)"}, {"smiles": "COc1ccc(/C=C/c2nc3cc(-c4ccccc4)ccc3o2)cc1O", "EC50": "14.6 µM"}, {"smiles": "Cc1ccc2c(=O)[nH]c(Nc3nc(C)cc(-c4ccccc4)n3)nc2c1", "EC50": "> 80 µM (inactive)"}, {"smiles": "CCCCN(CC)S(=O)(=O)c1ccc(C(=O)N(CCCN(C)C)c2nc3cc(C)cc(C)c3s2)cc1", "EC50": "11.4 µM"}, {"smiles": "CCOc1ccc(NC(=S)NC(=O)/C=C/c2ccc(OC)c(OC)c2)c([N+](=O)[O-])c1", "EC50": "> 80 µM (inactive)"}, {"smiles": "C=C(C)[C@@]12OC3(c4ccccc4)O[C@@H]1C1[C@@H]4O[C@]4(CO)[C@@H](O)[C@]4(O)C(=O)C(C)=C[C@H]4[C@@]1(O3)[C@H](C)[C@H]2OC(=O)/C=C/C=C/c1ccccc1", "note": "(some centres not stated)", "EC50": "inactive"}, {"smiles": "Oc1ccc(CN2CCC(Cc3ccccc3)CC2)c2cccnc12", "EC50": "5.55 µM"}, {"smiles": "CCOc1cc(/C=N/NC(=O)Cn2nc([N+](=O)[O-])cc2C)cc(Br)c1OCc1ccccc1C", "EC50": "> 80 µM (inactive)"}, {"smiles": "O=C(NCC1CCCO1)c1nn2c(C(F)(F)F)cc(-c3cc(Br)cs3)nc2c1Br", "note": "(configuration not stated)", "EC50": "> 80 µM (inactive)"}, {"smiles": "O=Cc1cc2ccccc2nc1SCc1ccc(Cl)c(Cl)c1", "EC50": "inactive"}, {"smiles": "O=C1NC(=O)C(=Cc2cn(CCOc3ccc4c(c3)OCO4)c3ccccc23)C(=O)N1", "EC50": "18.5 µM"}, {"smiles": "Cc1[nH]c2ccccc2c1/C=C/c1nc2ccccc2c(=O)n1-c1ccc([N+](=O)[O-])cc1", "EC50": "> 80 µM (inactive)"}, {"smiles": "COc1ccc(C(=O)/C=C/c2ccc(O)cc2)c(O)c1C/C=C(\\C)CCC=C(C)C", "EC50": "15.2 µM"}, {"smiles": "Cc1ccc(-c2nc(N/N=C/c3cccc([N+](=O)[O-])c3)c3ccccc3n2)cc1", "EC50": "> 80 µM (inactive)"}, {"smiles": "O=C(/C=C\\c1cn(-c2ccccc2)nc1-c1ccccc1)Nc1nccs1", "EC50": "> 80 µM (inactive)"}, {"smiles": "C=CCN1C(=O)/C(=C2/Sc3ccc(OC)cc3N2C)SC1=Nc1cccc(O)c1", "EC50": "> 80 µM (inactive)"}, {"smiles": "CCOC(=O)c1[nH]c2ccc(Cl)cc2c1NC(=O)/C=C/c1ccc2c(c1)OCO2", "EC50": "inactive"}, {"smiles": "CC1=Nc2ccccc2/C1=C\\c1sc(Nc2ccc(C)cc2)nc1O", "EC50": "17.3 µM"}, {"smiles": "CCc1ccc(OCCNc2cc(N3CCNC(C)C3)ccc2[N+](=O)[O-])cc1", "note": "(configuration not stated)", "EC50": "> 80 µM (inactive)"}, {"smiles": "CCOc1ccc(-n2c(C)cc(C(=O)CCl)c2C)cc1", "EC50": "6.73 µM"}, {"smiles": "O=C1NC(=O)N(Cc2ccc(F)cc2)C(=O)/C1=C/c1cccs1", "EC50": "13.8 µM"}, {"smiles": "Cc1c(CCOC(=O)C23CC4(C)CC(C)(CC(C)(C4)C2)C3)sc[n+]1CC(=O)c1ccccc1", "EC50": "> 80 µM (inactive)"}, {"smiles": "Cc1ccc2c(c1)C(=O)C(=O)N2Cc1ccc(Cl)cc1", "EC50": "inactive"}, {"smiles": "COc1cc(/C=C/c2ccc3cccc(O)c3n2)ccc1O", "EC50": "7.62 µM"}, {"smiles": "CCOC(=O)c1nnc(-c2ccc(C)cc2)nc1Oc1ccccc1Cl", "EC50": "inactive"}, {"smiles": "Cc1ccc(Cn2c(C(C)Nc3nc(-c4ccc(F)cc4)cs3)nc3cc(Cl)c(Cl)cc32)cc1", "note": "(configuration not stated)", "EC50": "inactive"}, {"smiles": "O=C(NC1CCCCC1)c1cccc2c1C(=O)c1ccc(-c3ccc(OC(F)(F)F)cc3)cc1S2(=O)=O", "EC50": "> 80 µM (inactive)"}, {"smiles": "CC1(C)C[C@H](O)[C@]2(CO)[C@H](O)C[C@]3(C)C(=CCC4[C@@]5(C)CC[C@H](O)C(C)(C)C5CC[C@]43C)[C@@H]2C1", "note": "(some centres not stated)", "EC50": "> 80 µM (inactive)"}, {"smiles": "COc1cccc(-c2sc3ccccc3c2-c2ccc(OCCN(C)C)cc2)c1", "EC50": "12.6 µM"}, {"smiles": "COc1cccc(C(=O)Oc2cc3c4c(c2)C(C)=CC(C)(C)N4C(=O)C3=O)c1", "EC50": "15.7 µM"}, {"smiles": "N#Cc1c(-c2ccc3c(c2)OCO3)ccn2nc(-c3cccc(C(F)(F)F)c3)nc12", "EC50": "inactive"}, {"smiles": "Cc1ccc2c(c1)c(N=NC(N)=S)c(O)n2Cc1ccccc1", "EC50": "> 80 µM (inactive)"}, {"smiles": "COc1cc2c(cc1NC(=S)NC(=O)/C=C/c1ccco1)oc1ccccc12", "EC50": "inactive"}, {"smiles": "O=C(C[C@@H]1C/C=C/CC[C@H](Cc2ccc(F)cc2)C(=O)OC[C@@H](Cc2ccccc2)NC1=O)N[C@H](CO)Cc1ccccc1", "EC50": "14.4 µM"}, {"smiles": "O=C(N/N=C/c1ccc(Cl)cc1)c1sccc1OCc1ccc(F)cc1", "EC50": "inactive"}, {"smiles": "Cc1ccc(Cn2c(SCC(=O)Nc3cc(C)on3)nc3ccccc3c2=O)cc1", "EC50": "> 80 µM (inactive)"}, {"smiles": "CN1Cc2c(N3CCOCC3)nc3sc(C(=O)c4ccc(Br)cc4)c(N)c3c2CC1(C)C", "EC50": "18.7 µM"}, {"smiles": "CN(C)C(=O)CCc1ccc2c3c([nH]c2c1)[C@]1(CCc2ccccc2)[C@@H](C(=O)N2CCCCC2)C[C@H](CC(=O)NCCC2=CCCCC2)C(=O)N1CC3", "EC50": "inactive"}, {"smiles": "CCN(CC)CCn1c(SCC(=O)Nc2ccc(F)cc2)nc2c(sc3ccccc32)c1=O", "EC50": "> 80 µM (inactive)"}, {"smiles": "C=CCN(CC=C)S(=O)(=O)c1ccc(C(=O)Nc2nc3c(s2)CCc2ccccc2-3)cc1", "EC50": "> 80 µM (inactive)"}, {"smiles": "C/C(CCC12CC3CC(CC(C3)C1)C2)=N\\NC(N)=S", "EC50": "inactive"}, {"smiles": "CCN(CC)c1ccc(C(=O)OCC(=O)Nc2cc3oc4ccccc4c3cc2OC)cc1", "EC50": "20 µM"}, {"smiles": "CN(C)CCCN(C(=O)c1cc(-c2cccs2)nc2ccccc12)c1nc2ccc(F)cc2s1", "EC50": "15.9 µM"}, {"smiles": "OC(CNCC1CCCO1)Cn1c2ccc(Cl)cc2c2cc(Cl)ccc21", "note": "(configuration not stated)", "EC50": "> 80 µM (inactive)"}, {"smiles": "Cn1c2ccccc2c2cc(/C=N/NC(=O)c3cc(O)ccc3O)ccc21", "EC50": "4.02 µM"}, {"smiles": "O=C(Nc1ccc(C(F)(F)F)cc1)c1cc(-c2cccnc2)nc2ccc(Br)cc12", "EC50": "11.5 µM"}, {"smiles": "O=C(COC(=O)c1ccc2[nH]c3c(c2c1)CCCC3)Nc1ccccc1Cl", "EC50": "> 80 µM (inactive)"}, {"smiles": "COC(=O)c1cc([N+](=O)[O-])c(-n2ccnc2)c([N+](=O)[O-])c1", "EC50": "> 80 µM (inactive)"}, {"smiles": "CCOC(=O)c1c(NC(=O)c2cc(-c3ccc(O)cc3)on2)sc(C(C)=O)c1C", "EC50": "> 80 µM (inactive)"}, {"smiles": "Cc1cc(C)nc(SCc2ccc(C(=O)N/N=C/c3cccc(O)c3O)cc2)n1", "EC50": "6.43 µM"}, {"smiles": "O=C(NCC1CC1)c1cccc2c1C(=O)c1ccc(-c3ccc(OC(F)(F)F)cc3)cc1S2(=O)=O", "EC50": "> 80 µM (inactive)"}, {"smiles": "Cc1ccc(-c2nn(CC(=O)NCc3cc(-c4nn(C)c(=O)c5ccccc45)ccc3C)c(=O)c3ccccc23)cc1", "EC50": "13.1 µM"}, {"smiles": "CCOC(=O)c1nnc(-c2ccc(C)cc2)nc1Sc1cccc(Cl)c1", "EC50": "> 80 µM (inactive)"}, {"smiles": "CCC(C)(C)C1CCC2(CC1)NC(=O)N(CC(=O)N1CCN(S(=O)(=O)c3cc(C)ccc3C)CC1)C2=O", "note": "(configuration not stated)", "EC50": "19.3 µM"}, {"smiles": "O=[N+]([O-])c1ccc(N/N=C/c2ccc(OCc3cccc4ccccc34)cc2)nc1", "EC50": "> 80 µM (inactive)"}, {"smiles": "CCOc1ccccc1CNC(=O)C1CCN(c2nnc(C)c3c(C)n(-c4ccc(C)cc4)nc23)CC1", "EC50": "> 80 µM (inactive)"}, {"smiles": "CN(C)c1ccc(/C=C/[N+](=O)[O-])cc1", "EC50": "12.6 µM"}, {"smiles": "Cc1ccc2nc(Nc3nc(C)cc(-c4ccccc4)n3)[nH]c(=O)c2c1", "EC50": "> 80 µM (inactive)"}, {"smiles": "Cc1ccc(-c2[nH]ncc2/C=N/n2c(COc3ccccc3)nc3ccccc3c2=O)cc1", "EC50": "inactive"}, {"smiles": "CC1CCN(Cc2c(C(=O)N/N=C/c3ccc(C(F)(F)F)cc3)nnn2-c2nonc2N)CC1", "EC50": "> 80 µM (inactive)"}, {"smiles": "COc1ccc(-c2nnc(SCC(=O)Nc3sc4c(c3C#N)CCCC4)n2-c2ccccc2)cc1", "EC50": "16.1 µM"}, {"smiles": "Cc1ccc(-n2c(O)c(/C=N/c3ncc(Br)cc3Br)c(=O)[nH]c2=O)cc1", "EC50": "inactive"}, {"smiles": "Cc1cc(NC(=O)c2cc(-c3ccncc3)nc3ccccc23)ccc1Br", "EC50": "> 80 µM (inactive)"}, {"smiles": "Cn1c(=O)c2c(SCC(=O)Nc3ccccc3F)nc(-c3ccccc3F)nc2n(C)c1=O", "EC50": "inactive"}, {"smiles": "Cc1ccc(Nc2nc(NCc3ccco3)c3ccccc3n2)cc1", "EC50": "> 80 µM (inactive)"}, {"smiles": "CCc1ccc2[nH]c3nc(SCc4nnc(-c5ccc(C)cc5)o4)nnc3c2c1", "EC50": "inactive"}, {"smiles": "COc1ccc(N=c2oc3ccc(OC)cc3cc2-c2nc3ccccc3[nH]2)cc1", "EC50": "6.79 µM"}, {"smiles": "CCOC(=O)C(=CNc1nc(-c2ccccc2)c(C(=O)Nc2ccc(-c3ccccc3)cc2)s1)C(=O)OCC", "EC50": "inactive"}, {"smiles": "Cc1ccc2nc(N(CCCN(C)C)C(=O)c3ccc(S(=O)(=O)N4CCc5ccccc5C4)cc3)sc2c1", "EC50": "10.9 µM"}, {"smiles": "COc1ccc(-c2nc3scc(-c4ccc(OC)c(OC)c4)c3c(=O)o2)cc1", "EC50": "> 80 µM (inactive)"}, {"smiles": "Cc1cc(N2CCN(c3ccc([N+](=O)[O-])c4cccnc34)CC2)c2ccccc2n1", "EC50": "inactive"}, {"smiles": "COc1cc(C(=O)Nc2nc(-c3ccc(Cl)cc3)c(C)s2)ccc1OCC(=O)Nc1ccc(F)cc1", "EC50": "17.9 µM"}, {"smiles": "COc1ccc(-c2cc(=O)oc3c(C)c(OC(=O)c4cccs4)ccc23)cc1", "EC50": "> 80 µM (inactive)"}, {"smiles": "O=C(Cc1ccccc1)c1c[nH]c(C(=O)C(Cl)(Cl)Cl)c1", "EC50": "inactive"}, {"smiles": "O=C(NN1C(=O)/C(=C/c2ccc(O)c(O)c2)SC1=S)c1ccccc1", "EC50": "10.2 µM"}, {"smiles": "CCCc1nc2c(c(=O)c3ccccc3n2C)c(=O)n1C1CCCCCC1", "EC50": "> 80 µM (inactive)"}, {"smiles": "Cc1ccc(O)c(NC(=S)NC(=O)Cc2ccc(Cl)cc2)c1", "EC50": "inactive"}, {"smiles": "CCCNC(=O)/C(C#N)=C1\\N=C(NC(=O)c2cccs2)c2ccccc21", "EC50": "> 80 µM (inactive)"}, {"smiles": "Nc1nc(Nc2ccccc2)nc(NC2CCCCC2)c1[N+](=O)[O-]", "EC50": "inactive"}, {"smiles": "COc1cc(SC#N)ccc1N=Cc1c(C)[nH]n(-c2ccc(Cl)cc2)c1=O", "EC50": "7.41 µM"}, {"smiles": "O=CC1=C(c2ccccc2)Oc2ccccc2O1", "EC50": "10.3 µM"}, {"smiles": "C/C(=N/NC(=O)c1ccc(Cl)s1)c1ccc(NC(=O)COc2ccc(Cl)cc2)cc1", "EC50": "inactive"}, {"smiles": "Cn1nc(C(F)(F)F)c(/C=N/OC(=O)c2ccccc2Cl)c1SCc1ccccc1Cl", "EC50": "inactive"}, {"smiles": "COc1cc([N+](=O)[O-])cc(/C=N/NC(=O)c2ccc(NC(=O)c3ccc(C)cc3)cc2)c1O", "EC50": "inactive"}, {"smiles": "CCCCCc1nc2c(c(=O)c3ccccc3n2C)c(=O)n1C1CCCCCC1", "EC50": "15.3 µM"}, {"smiles": "Cc1ccc2nc(Nc3nc(-c4ccccc4)cc(=O)[nH]3)nc(C)c2c1", "EC50": "> 80 µM (inactive)"}, {"smiles": "CCOc1ccc(/C=C/C(O)=C2/C(=O)NC3(C)CC2c2ccccc2O3)cc1OC", "note": "(configuration not stated)", "EC50": "inactive"}, {"smiles": "CCOC(=O)c1c(NC(=O)/C=C/C(=O)O)sc(C)c1-c1ccc(C(C)(C)C)cc1", "EC50": "> 80 µM (inactive)"}, {"smiles": "COc1ccc2c(c1)NC(c1cc(Cl)cc(Cl)c1O)c1cccn1-2", "note": "(configuration not stated)", "EC50": "inactive"}]}]}
